Assay results from PubChem BioAssay (NCI).
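Briefly, cells in 96-well plates were exposed to five compound concentrations for 48 h, and endpoints were estimated by linear interpolation. Here, GI50 denotes the concentration required for 50% inhibition of growth. TGI marks complete inhibition of growth.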

What was measured:
Assay in all cases: NCI anticancer screen, dose series, 48 h
HL-60(TB) leukemia = system: HL-60(TB) leukemia
A549 NSCLC = system: A549 NSCLC
SF-268 CNS = system: SF-268 CNS
HCT-15 colon = system: HCT-15 colon
MDA-MB-435 = system: MDA-MB-435
PC-3 prostate = system: PC-3 prostate
K-562 leukemia = system: K-562 leukemia
UACC-257 melanoma = system: UACC-257 melanoma
SF-539 CNS = system: SF-539 CNS
CCRF-CEM leukemia = system: CCRF-CEM leukemia
NCI/ADR-RES ovarian = system: NCI/ADR-RES ovarian
SR leukemia = system: SR leukemia
SK-MEL-2 melanoma = system: SK-MEL-2 melanoma
T-47D breast = system: T-47D breast
OVCAR-4 ovarian = system: OVCAR-4 ovarian
SNB-75 CNS = system: SNB-75 CNS
HS 578T breast = system: HS 578T breast
MCF7 breast = system: MCF7 breast
A498 renal = system: A498 renal
TK-10 renal = system: TK-10 renal
HCT-116 colon = system: HCT-116 colon
U251 CNS = system: U251 CNS
COLO 205 colon = system: COLO 205 colon
CAKI-1 renal = system: CAKI-1 renal
DU-145 prostate = system: DU-145 prostate
UO-31 renal = system: UO-31 renal
786-0 renal = system: 786-0 renal
EKVX NSCLC = system: EKVX NSCLC
OVCAR-8 ovarian = system: OVCAR-8 ovarian
SN12C renal = system: SN12C renal
LOX IMVI melanoma = system: LOX IMVI melanoma
MALME-3M melanoma = system: MALME-3M melanoma
RPMI-8226 leukemia = system: RPMI-8226 leukemia
HCC-2998 colon = system: HCC-2998 colon
NCI-H460 lung = system: NCI-H460 lung
SF-295 CNS = system: SF-295 CNS
OVCAR-5 ovarian = system: OVCAR-5 ovarian
MOLT-4 leukemia = system: MOLT-4 leukemia
IGROV1 ovarian = system: IGROV1 ovarian
HOP-62 NSCLC = system: HOP-62 NSCLC
OVCAR-3 ovarian = system: OVCAR-3 ovarian
SK-MEL-5 melanoma = system: SK-MEL-5 melanoma
SW-620 colon = system: SW-620 colon
SK-MEL-28 melanoma = system: SK-MEL-28 melanoma
UACC-62 melanoma = system: UACC-62 melanoma
M14 melanoma = system: M14 melanoma
MDA-MB-231 breast = system: MDA-MB-231 breast
HT29 colon = system: HT29 colon
BT-549 breast = system: BT-549 breast
NCI-H226 lung = system: NCI-H226 lung
ACHN renal = system: ACHN renal
HOP-92 NSCLC = system: HOP-92 NSCLC
NCI-H23 lung = system: NCI-H23 lung
SNB-19 CNS = system: SNB-19 CNS
NCI-H522 lung = system: NCI-H522 lung
SK-OV-3 ovarian = system: SK-OV-3 ovarian
KM12 colon = system: KM12 colon

COc1cc(C(=O)c2cc(C)c3[nH]c4ccc(Cl)cc4c3c2C)cc(OC)c1OC
GI50 (HL-60(TB) leukemia): 27.9 nM | TGI (HL-60(TB) leukemia): 90.1 nM | GI50 (A549 NSCLC): 134 nM | TGI (A549 NSCLC): 28700 nM | GI50 (SF-268 CNS): 182 nM | TGI (SF-268 CNS): 16200 nM | GI50 (HCT-15 colon): 35.5 nM | TGI (HCT-15 colon): 4250 nM | GI50 (MDA-MB-435): 24.9 nM | TGI (MDA-MB-435): 73.3 nM | GI50 (PC-3 prostate): 146 nM | TGI (PC-3 prostate): 13700 nM | GI50 (K-562 leukemia): 35 nM | TGI (K-562 leukemia): > 100000 nM | GI50 (UACC-257 melanoma): 4280 nM | TGI (UACC-257 melanoma): 32300 nM | GI50 (SF-539 CNS): 28.4 nM | TGI (SF-539 CNS): 461 nM | GI50 (CCRF-CEM leukemia): 39.9 nM | TGI (CCRF-CEM leukemia): > 100000 nM | GI50 (NCI/ADR-RES ovarian): 32 nM | TGI (NCI/ADR-RES ovarian): 11900 nM | GI50 (SR leukemia): 49.3 nM | TGI (SR leukemia): 97100 nM | GI50 (SK-MEL-2 melanoma): 575 nM | TGI (SK-MEL-2 melanoma): 17300 nM | GI50 (T-47D breast): 1840 nM | TGI (T-47D breast): 39300 nM | GI50 (OVCAR-4 ovarian): 1160 nM | TGI (OVCAR-4 ovarian): 27200 nM | GI50 (SNB-75 CNS): 25.4 nM | TGI (SNB-75 CNS): 3960 nM | GI50 (HS 578T breast): 36.4 nM | TGI (HS 578T breast): 10600 nM | GI50 (MCF7 breast): 35.2 nM | TGI (MCF7 breast): 13200 nM | GI50 (A498 renal): 24.2 nM | TGI (A498 renal): 80.5 nM | GI50 (TK-10 renal): 2710 nM | TGI (TK-10 renal): 29400 nM | GI50 (HCT-116 colon): 37.6 nM | TGI (HCT-116 colon): 3190 nM | GI50 (U251 CNS): 42.5 nM | TGI (U251 CNS): 15000 nM | GI50 (COLO 205 colon): 517 nM | TGI (COLO 205 colon): 2360 nM | GI50 (CAKI-1 renal): 52.1 nM | TGI (CAKI-1 renal): 12500 nM | GI50 (DU-145 prostate): 45.9 nM | TGI (DU-145 prostate): 3600 nM | GI50 (UO-31 renal): 120 nM | TGI (UO-31 renal): 11500 nM | GI50 (786-0 renal): 63.4 nM | TGI (786-0 renal): 6190 nM | GI50 (EKVX NSCLC): 254 nM | TGI (EKVX NSCLC): 23400 nM | GI50 (OVCAR-8 ovarian): 43.9 nM | TGI (OVCAR-8 ovarian): 10700 nM | GI50 (SN12C renal): 50.9 nM | TGI (SN12C renal): 13200 nM | GI50 (LOX IMVI melanoma): 38.4 nM | TGI (LOX IMVI melanoma): 5520 nM | GI50 (MALME-3M melanoma): 79.1 nM | TGI (MALME-3M melanoma): 15300 nM | GI50 (RPMI-8226 leukemia): 42.1 nM | TGI (RPMI-8226 leukemia): 18600 nM | GI50 (HCC-2998 colon): 54.8 nM | TGI (HCC-2998 colon): 5290 nM | GI50 (NCI-H460 lung): 35 nM | TGI (NCI-H460 lung): 3740 nM | GI50 (SF-295 CNS): 28.4 nM | TGI (SF-295 CNS): 303 nM | GI50 (OVCAR-5 ovarian): 63.5 nM | TGI (OVCAR-5 ovarian): 18000 nM | GI50 (MOLT-4 leukemia): 46 nM | TGI (MOLT-4 leukemia): > 47400 nM | GI50 (IGROV1 ovarian): 43.8 nM | TGI (IGROV1 ovarian): 12300 nM | GI50 (HOP-62 NSCLC): 75.6 nM | TGI (HOP-62 NSCLC): 19500 nM | GI50 (OVCAR-3 ovarian): 32.9 nM | TGI (OVCAR-3 ovarian): 7160 nM | GI50 (SK-MEL-5 melanoma): 36.1 nM | TGI (SK-MEL-5 melanoma): 196 nM | GI50 (SW-620 colon): 41.5 nM | TGI (SW-620 colon): 24800 nM | GI50 (SK-MEL-28 melanoma): 1440 nM | TGI (SK-MEL-28 melanoma): 17000 nM | GI50 (UACC-62 melanoma): 37.6 nM | TGI (UACC-62 melanoma): 8400 nM | GI50 (M14 melanoma): 33 nM | TGI (M14 melanoma): 12400 nM | GI50 (MDA-MB-231 breast): 49.6 nM | TGI (MDA-MB-231 breast): 2320 nM | GI50 (HT29 colon): 359 nM | TGI (HT29 colon): 10700 nM | GI50 (BT-549 breast): 42.3 nM | TGI (BT-549 breast): 4550 nM | GI50 (NCI-H226 lung): 679 nM | TGI (NCI-H226 lung): 18300 nM | GI50 (ACHN renal): 59.3 nM | TGI (ACHN renal): 12800 nM | GI50 (HOP-92 NSCLC): 156 nM | TGI (HOP-92 NSCLC): 4650 nM | GI50 (NCI-H23 lung): 44.4 nM | TGI (NCI-H23 lung): 7430 nM | GI50 (SNB-19 CNS): 41.8 nM | TGI (SNB-19 CNS): 19200 nM | GI50 (NCI-H522 lung): 29.1 nM | TGI (NCI-H522 lung): 1950 nM | GI50 (SK-OV-3 ovarian): 666 nM | TGI (SK-OV-3 ovarian): 34700 nM | GI50 (KM12 colon): 53.1 nM | TGI (KM12 colon): 2400 nM
